Results on 68 molecules are retold here after patent US9630947B2, “Therapeutic compounds and related methods of use” (OTSUKA PHARMACEUTICAL CO., LTD., priority 2009, dated 2017).

pIC50: −log10 of the molar value.

This experiment has as its target T1, purified STEP46 enzyme (Homo sapiens, UniProt P54829).
T1 sequence (P54829 1-565): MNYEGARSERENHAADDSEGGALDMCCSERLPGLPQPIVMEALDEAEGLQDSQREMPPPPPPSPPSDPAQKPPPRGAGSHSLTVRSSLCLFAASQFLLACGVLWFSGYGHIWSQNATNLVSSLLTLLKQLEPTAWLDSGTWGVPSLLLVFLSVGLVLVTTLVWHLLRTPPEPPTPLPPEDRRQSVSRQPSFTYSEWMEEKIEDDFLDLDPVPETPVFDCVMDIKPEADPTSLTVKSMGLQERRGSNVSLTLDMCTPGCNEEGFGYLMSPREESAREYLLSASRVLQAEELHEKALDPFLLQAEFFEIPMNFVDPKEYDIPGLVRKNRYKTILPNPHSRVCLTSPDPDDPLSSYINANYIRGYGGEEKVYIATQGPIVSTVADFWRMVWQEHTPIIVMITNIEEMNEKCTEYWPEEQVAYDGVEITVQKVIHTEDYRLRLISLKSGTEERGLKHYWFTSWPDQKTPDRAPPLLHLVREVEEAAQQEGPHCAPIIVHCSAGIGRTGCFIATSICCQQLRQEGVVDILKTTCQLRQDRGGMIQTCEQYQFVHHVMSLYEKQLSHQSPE
Nature of the experiment: STEP46 biochemical assay (DiFMUP fluorescence phosphatase assay). To be noted: DiFMUP 10 μM, read-out: STEP IC50. In a few lines:
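Compounds preincubated 30 min at room temperature with purified STEP46 (1 ng/well) in 50 mM Hepes, 1 mM DTT, 0.02% Brij35, then 10 μM DiFMUP (final) added for 90 min at 27 °C; 2% DMSO, fluorescence at 360/460 nm. IC50 from four-parameter fit of % inhibition; activators reported as negative % inhibition at 25, 50 and 100 uM.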
Regarding `CCc1sc(Nc2nc(-c3cccnc3)nc3ccc(OC)cc23)nc1-c1ccccc1` [Compound 463], the pIC50 was 5.00 to 6.00.
For the molecule `Clc1cc(Cl)cc(Nc2nc(-c3cnccn3)nc3ccccc23)c1` [Compound 1222], the pIC50 was 5.00 to 6.00.
For `CNc1nc(-c2cccnc2)nc2cc(-c3ccccc3)ccc12` [Compound 1348], the negative-log IC50 (pIC50) is < 5.00.
As to `COc1ccc2nc(-c3ccnnc3)nc(Nc3cccc(C#N)c3)c2c1` [Compound 1187], the pIC50 is > 6.00.
Take `Clc1ccc(Nc2nc(-c3cnccn3)nc3ccccc23)cc1Cl` [Compound 1218]: the negative-log IC50 (pIC50) is 5.00 to 6.00.
Take `Clc1ccc(Nc2nc(-c3ccnnc3)nc3ccccc23)cc1Cl` [Compound 1215]: the pIC50 was > 6.00.
For `FC1(F)Oc2ccc(Nc3nc(-c4cncnc4)nc4ccccc34)cc2O1` [Compound 1173], the pIC50 is < 5.00.
Turning to `CNc1nc(-c2cccnc2)nc2cc(-c3ccc(C#N)cc3)ccc12` [Compound 1365], the negative logarithm of the IC50 (pIC50) is 5.00 to 6.00.
As to `NC(=O)c1ccc(-c2ccc3c(Nc4ccc(F)c(Cl)c4)nc(-c4cccnc4)nc3c2)cc1` [Compound 684], the negative-log IC50 (pIC50) is 5.00 to 6.00.
Regarding `Fc1ccc(Nc2nc(-c3cccnc3)nc3ccc(-c4ccccc4F)cc23)cc1Cl` [Compound 641], the negative logarithm of the IC50 (pIC50) was > 6.00.
On to `CNc1nc(-c2cccnc2)nc2c(C)c(-c3cccc(C#N)c3)ccc12` [Compound 1453], for which the pIC50 was 5.00 to 6.00.
In the case of `COc1ccc2nc(-c3cccnc3)nc(Nc3nnc(-c4ccc(Br)cc4)s3)c2c1` [Compound 428], the pIC50 was 5.00 to 6.00.
`FC(F)Oc1cccc(Nc2nc(-c3ccnnc3)nc3ccccc23)c1` [Compound 1183]: the pIC50 was 5.00 to 6.00.
In the case of `CNc1nc(-c2cccnc2)nc2cc(-c3ccc(OC)cc3)c(C)cc12` [Compound 1413], the pIC50 is 5.00 to 6.00.
As for `Cc1cccc2c(Nc3cc(Cl)cc(Cl)c3)nc(-c3cnccn3)nc12` [Compound 1180], the figure is 5.00 to 6.00.
Regarding `CNc1nc(-c2cccnc2)nc2c(C)c(-c3cc(F)ccc3F)ccc12` [Compound 1450], the pIC50 is 5.00 to 6.00.
On to `COc1ccc2nc(-c3cccnc3)nc(Nc3nc(-c4cccc(F)c4F)cs3)c2c1` [Compound 452], for which the pIC50 was > 6.00.
As for `COc1ccc2nc(-c3ccnnc3)nc(Nc3ccccc3C(N)=O)c2c1` [Compound 1198], the figure is 5.00 to 6.00; as for `CCOC(=O)c1csc(Nc2nc(-c3cccnc3)nc3ccc(OC)cc23)n1` [Compound 474], 5.00 to 6.00; as for `Fc1ccc(-c2ccc3c(Nc4ccc(F)c(Cl)c4)nc(-c4cccnc4)nc3c2)cc1` [Compound 689], > 6.00.
For `CNc1nc(-c2cccnc2)nc2c(C)cc(-c3ccccc3OC)cc12` [Compound 1283], the pIC50 is < 5.00.
For `COc1ccc2nc(-c3cnccn3)nc(Nc3cccc(C#N)c3)c2c1` [Compound 1193], the pIC50 was 5.00 to 6.00.
For the molecule `CNc1nc(-c2cccnc2)nc2c(C)c(-c3cccc(F)c3)ccc12` [Compound 1449], the pIC50 is < 5.00.
Turning to `COc1cccc(-c2ccc3nc(-c4cccnc4)nc(Oc4ccc(F)c(F)c4)c3c2)c1` [Compound 392], the pIC50 was 5.00 to 6.00.
For `CNc1nc(-c2cccnc2)nc2cc(-c3ccccc3OC)c(C)cc12` [Compound 1411], the pIC50 was < 5.00.
Next, `COc1ccc2nc(-c3cccnc3)nc(Nc3ccccc3C(=O)NC3CCc4ccccc43)c2c1` (centres unmarked) [Compound 898]: < 5.00; `CNc1nc(-c2cccnc2)nc2c(C)c(-c3cc(F)cc(F)c3)ccc12` [Compound 1448]: 5.00 to 6.00; `Fc1ccc(Nc2nc(-c3cccnc3)nc3ccc(-c4ccccc4Cl)cc23)cc1Cl` [Compound 636]: < 5.00.
As for `CCOc1ccc2nc(-c3cccnc3)nc(Nc3nc(-c4ccc(F)cc4F)cs3)c2c1` [Compound 472], the figure is 5.00 to 6.00; as for `CNc1nc(-c2cccnc2)nc2c(C)c(-c3ccc(C#N)cc3)ccc12` [Compound 1452], > 6.00; as for `CCOc1ccc2nc(-c3cccnc3)nc(Nc3nc(-c4ccccc4)cs3)c2c1` [Compound 473], 5.00 to 6.00.
Turning to `CN(C)c1nc(-c2cccnc2)nc2ccc(-c3cccc(F)c3F)cc12` [Compound 1380], the pIC50 is 5.00 to 6.00.
As for `Fc1ccc(Nc2nc(-c3cnccn3)nc3ccc(Cl)cc23)cc1Cl` [Compound 1159], the figure is 5.00 to 6.00; as for `CNc1nc(-c2cccnc2)nc2c(C)cc(-c3ccccc3C#N)cc12` [Compound 1284], 5.00 to 6.00; as for `CNc1c(-c2cc(F)cc(F)c2)ccc2nc(-c3cccnc3)nc(C)c12` [Compound 1422], 5.00 to 6.00.
As to `CN(C)c1ccc2nc(-c3ccnnc3)nc(Nc3ccc(F)c(Cl)c3)c2c1` [Compound 1152], the pIC50 is 5.00 to 6.00.
With `O=[N+]([O-])c1cccc(-c2ccc3nc(-c4cccnc4)nc(Nc4ccc(F)c(Cl)c4)c3c2)c1` [Compound 635], the pIC50 was > 6.00.
Turning to `CNc1nc(-c2cccnc2)nc2cc(-c3cccc(C(C)=O)c3)ccc12` [Compound 1350], the pIC50 was 5.00 to 6.00.
As for `CNc1nc(-c2cccnc2)nc2ccc(-c3cccc(OC)c3)cc12` [Compound 1248], the pIC50 was 5.00 to 6.00.
In the case of `COc1cc(-c2ccc3nc(-c4cccnc4)nc(Nc4ccc(F)c(Cl)c4)c3c2)cc(C(F)(F)F)c1` [Compound 664], the pIC50 was 5.00 to 6.00.
Take `COc1ccccc1-c1ccc2c(Nc3ccc(F)c(Cl)c3)nc(-c3cccnc3)nc2c1` [Compound 682]: the pIC50 is 5.00 to 6.00.
As for `COc1ccc2nc(-c3cccnc3)nc(Nc3nc(-c4cccc(Br)c4)cs3)c2c1` [Compound 447], the pIC50 is 5.00 to 6.00.
As for `CNc1nc(-c2cccnc2)nc2cc(-c3ccccc3C#N)ccc12` [Compound 1363], the figure is 5.00 to 6.00.
Regarding `COc1ccc2nc(-c3cccnc3)nc(Nc3nc(-c4ccccc4C)cs3)c2c1` [Compound 444], the pIC50 was > 6.00.
Take `COc1ccc2nc(-c3cccnc3)nc(Nc3nc(-c4ccccc4)c(C(N)=O)s3)c2c1` [Compound 1125]: the negative-log IC50 (pIC50) is 5.00 to 6.00.
As for `COc1ccc2nc(-c3cccnc3)nc(Nc3ccc4scnc4c3)c2c1` [Compound 320], the figure is 5.00 to 6.00; as for `CNc1nc(-c2cccnc2)nc2cc(-c3ccc(C#N)cc3)c(C)cc12` [Compound 1410], 5.00 to 6.00; as for `N#Cc1cccc(-c2ccc3nc(-c4cccnc4)nc(Nc4ccc(F)c(Cl)c4)c3c2)c1` [Compound 633], 5.00 to 6.00.
Consider `COc1ccc(-c2ccc3c(Nc4ccc(F)c(Cl)c4)nc(-c4cccnc4)nc3c2)cc1` [Compound 680], for which the pIC50 is 5.00 to 6.00.
Consider `NC(=O)c1ccccc1Nc1nc(-c2cccnc2)nc2cc(-c3cc(F)cc(F)c3)ccc12` [Compound 707], for which the pIC50 was > 6.00.
As for `CCOc1ccc(-c2ccc3nc(-c4cccnc4)nc(Nc4ccc(F)c(Cl)c4)c3c2)cn1` [Compound 661], the pIC50 was > 6.00.
On to `COc1ccc2nc(-c3cccnc3)nc(Nc3ccc4c(c3)CCC4)c2c1` [Compound 306], for which the pIC50 is < 5.00.
For the molecule `COc1ccc2nc(-c3cnccn3)nc(Nc3ccc(F)c(F)c3)c2c1` [Compound 1192], the pIC50 is 5.00 to 6.00.
In the case of `COc1ccc2nc(-c3cccnc3)nc(Nc3ccc4oc(=O)[nH]c4c3)c2c1` [Compound 317], the pIC50 is 5.00 to 6.00.
As to `CNc1nc(-c2cccnc2)nc2cc(-c3ccc(C)cc3)ccc12` [Compound 1362], the pIC50 was 5.00 to 6.00.
Take `COc1ccc2nc(-c3cccnc3)nc(Nc3nc(-c4cccc(C(F)(F)F)c4)cs3)c2c1` [Compound 449]: the pIC50 is 5.00 to 6.00.
Consider `COc1ccc2nc(-c3cccnc3)nc(Nc3ccc4nonc4c3)c2c1` [Compound 332], for which the pIC50 is > 6.00.
Consider `CNc1nc(-c2cccnc2)nc2cc(-c3cccc(C#N)c3)c(C)cc12` [Compound 1409], for which the pIC50 was 5.00 to 6.00.
In the case of `CNc1nc(-c2cccnc2)nc2cc(-c3ccc(F)c(F)c3)ccc12` [Compound 1373], the pIC50 was 5.00 to 6.00.
Turning to `CNc1nc(-c2cccnc2)nc2cc(C)c(-c3ccc(F)c(F)c3)cc12` [Compound 1416], the negative-log IC50 (pIC50) was 5.00 to 6.00.
Regarding `Clc1ccc2nc(-c3cnccn3)nc(Nc3ccc(Cl)c(Cl)c3)c2c1` [Compound 1160], the pIC50 was 5.00 to 6.00.
`Cc1cccc2c(Nc3cccc(C#N)c3)nc(-c3cnccn3)nc12` [Compound 1181]: the pIC50 was 5.00 to 6.00.
As for `CNc1nc(-c2ccnnc2)nc2ccc(-c3ccc(F)cc3F)cc12` [Compound 1238], the negative logarithm of the IC50 (pIC50) was 5.00 to 6.00.
Regarding `Nc1nc(-c2cccnc2)nc2cc(-c3cc(F)ccc3F)ccc12` [Compound 1395], the pIC50 is 5.00 to 6.00.
As for `CN(C)c1nc(-c2cccnc2)nc2ccc(-c3cccc([N+](=O)[O-])c3)cc12` [Compound 1335], the pIC50 is 5.00 to 6.00.
Regarding `CNc1nc(-c2ccnnc2)nc2ccc(-c3cccc(F)c3F)cc12` [Compound 1237], the pIC50 is 5.00 to 6.00.
Consider `Fc1ccc(Nc2nc(-c3cccnc3)nc3cc(-c4cccnc4)ccc23)cc1Cl` [Compound 677], for which the pIC50 is < 5.00.
As to `Fc1ccc(-c2ccc3c(Nc4ccc(F)c(Cl)c4)nc(-c4cccnc4)nc3c2)cc1F` [Compound 674], the pIC50 is 5.00 to 6.00.

The term pIC50 denotes the IC50 on a negative log10 scale, so that one unit is a factor of ten.
